Data taken from the kinase profiling compilation of Christmann-Franck et al. (2016).
Blank lines part the entries; values can stand above or below the compound they belong to.

Key:
Assay in all cases: Caliper, Mobility shift assay off-chip
[1] = biological target: CDC42BPA (human) (UniProt Q5VT25)
[2] = biological target: EPHA5 (human) (UniProt P54756)
[3] = biological target: MET (human) (UniProt P08581)
[4] = biological target: SGK1 (human) (UniProt O00141)
[5] = biological target: PRKCQ (human) (UniProt Q04759)
[6] = biological target: DCLK2 (human) (UniProt Q8N568)
[7] = biological target: IGF1R (human) (UniProt P08069)
[8] = biological target: TEC (human) (UniProt P42680)
[9] = biological target: PAK1 (human) (UniProt Q13153)
PAK1 (human), sequence (Q13153 whole entry, looked up): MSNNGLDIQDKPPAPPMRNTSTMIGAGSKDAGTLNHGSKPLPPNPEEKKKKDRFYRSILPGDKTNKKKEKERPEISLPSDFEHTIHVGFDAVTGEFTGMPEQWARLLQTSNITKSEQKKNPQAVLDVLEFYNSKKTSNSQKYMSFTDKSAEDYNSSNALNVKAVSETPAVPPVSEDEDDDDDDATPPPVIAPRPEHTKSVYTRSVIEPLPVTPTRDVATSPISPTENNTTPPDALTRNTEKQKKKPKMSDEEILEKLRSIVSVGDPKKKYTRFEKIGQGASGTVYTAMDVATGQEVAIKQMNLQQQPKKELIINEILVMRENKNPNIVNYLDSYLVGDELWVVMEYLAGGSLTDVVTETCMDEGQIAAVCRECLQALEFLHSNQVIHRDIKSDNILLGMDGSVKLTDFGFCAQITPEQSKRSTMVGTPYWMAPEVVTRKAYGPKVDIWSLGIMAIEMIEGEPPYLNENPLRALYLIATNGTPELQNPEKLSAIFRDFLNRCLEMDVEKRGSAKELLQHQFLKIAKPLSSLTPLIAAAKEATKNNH

[10] = biological target: PRKAA2 (human) (UniProt P54646)
PRKAA2 (human), sequence (P54646 whole entry, looked up): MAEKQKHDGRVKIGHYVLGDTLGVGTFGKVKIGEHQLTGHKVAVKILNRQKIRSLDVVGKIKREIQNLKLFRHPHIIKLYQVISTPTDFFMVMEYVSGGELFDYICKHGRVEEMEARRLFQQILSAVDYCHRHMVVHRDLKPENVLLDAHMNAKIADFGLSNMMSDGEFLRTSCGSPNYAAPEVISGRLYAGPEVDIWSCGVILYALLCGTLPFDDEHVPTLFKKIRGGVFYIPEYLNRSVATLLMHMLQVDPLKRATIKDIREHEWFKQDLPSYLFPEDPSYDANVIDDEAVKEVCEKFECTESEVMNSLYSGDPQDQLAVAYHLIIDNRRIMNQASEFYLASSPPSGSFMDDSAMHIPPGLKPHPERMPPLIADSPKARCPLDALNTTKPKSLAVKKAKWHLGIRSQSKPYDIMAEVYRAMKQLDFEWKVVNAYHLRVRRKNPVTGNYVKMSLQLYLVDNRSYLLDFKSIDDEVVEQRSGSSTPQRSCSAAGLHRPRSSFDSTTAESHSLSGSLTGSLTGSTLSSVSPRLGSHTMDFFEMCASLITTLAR

[11] = biological target: IRAK1 (human) (UniProt P51617)
IRAK1 (human), sequence (P51617 whole entry, looked up): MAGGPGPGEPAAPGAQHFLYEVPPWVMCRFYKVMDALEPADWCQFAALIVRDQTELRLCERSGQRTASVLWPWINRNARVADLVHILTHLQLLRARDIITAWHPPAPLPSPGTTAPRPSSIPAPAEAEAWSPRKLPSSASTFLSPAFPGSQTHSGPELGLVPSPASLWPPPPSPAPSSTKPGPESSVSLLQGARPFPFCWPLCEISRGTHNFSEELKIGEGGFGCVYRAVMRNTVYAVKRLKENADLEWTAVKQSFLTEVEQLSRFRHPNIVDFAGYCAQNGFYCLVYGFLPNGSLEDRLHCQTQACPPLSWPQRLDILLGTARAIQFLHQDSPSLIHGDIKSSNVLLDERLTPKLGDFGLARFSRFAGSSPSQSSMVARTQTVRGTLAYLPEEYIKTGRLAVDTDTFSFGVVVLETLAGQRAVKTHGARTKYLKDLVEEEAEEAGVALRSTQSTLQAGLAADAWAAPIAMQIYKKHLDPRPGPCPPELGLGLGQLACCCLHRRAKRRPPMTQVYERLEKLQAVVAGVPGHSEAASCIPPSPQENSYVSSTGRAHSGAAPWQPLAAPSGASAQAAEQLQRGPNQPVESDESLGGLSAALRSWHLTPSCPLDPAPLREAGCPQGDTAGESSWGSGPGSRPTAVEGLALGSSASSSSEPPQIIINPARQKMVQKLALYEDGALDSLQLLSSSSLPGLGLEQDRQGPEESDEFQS

[12] = biological target: NEK2 (human) (UniProt P51955)
NEK2 (human), sequence (P51955 whole entry, looked up): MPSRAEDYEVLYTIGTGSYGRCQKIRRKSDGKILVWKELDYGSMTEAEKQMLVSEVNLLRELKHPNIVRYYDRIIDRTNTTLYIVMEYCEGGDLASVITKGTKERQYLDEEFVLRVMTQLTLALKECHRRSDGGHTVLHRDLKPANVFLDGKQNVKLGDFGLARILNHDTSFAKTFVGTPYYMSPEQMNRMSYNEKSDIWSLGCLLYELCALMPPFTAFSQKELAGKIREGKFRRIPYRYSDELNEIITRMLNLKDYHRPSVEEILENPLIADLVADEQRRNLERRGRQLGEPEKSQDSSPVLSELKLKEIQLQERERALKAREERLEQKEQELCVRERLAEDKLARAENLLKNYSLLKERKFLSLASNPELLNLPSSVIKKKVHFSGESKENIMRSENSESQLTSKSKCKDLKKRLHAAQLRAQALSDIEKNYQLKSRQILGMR

[13] = biological target: AKT1 (human) (UniProt P31749)
[14] = biological target: DYRK2 (human) (UniProt Q92630)
[15] = biological target: NUAK1 (human) (UniProt O60285)
[16] = biological target: ALK EML4 (human) (UniProt Q9HC35+Q9UM73)
[17] = biological target: BMX (human) (UniProt P51813)
[18] = biological target: FES (human) (UniProt P07332)
[19] = biological target: PRKCH (human) (UniProt P24723)
[20] = biological target: CLK3 (human) (UniProt P49761)
CLK3 (human), sequence (P49761 whole entry, looked up): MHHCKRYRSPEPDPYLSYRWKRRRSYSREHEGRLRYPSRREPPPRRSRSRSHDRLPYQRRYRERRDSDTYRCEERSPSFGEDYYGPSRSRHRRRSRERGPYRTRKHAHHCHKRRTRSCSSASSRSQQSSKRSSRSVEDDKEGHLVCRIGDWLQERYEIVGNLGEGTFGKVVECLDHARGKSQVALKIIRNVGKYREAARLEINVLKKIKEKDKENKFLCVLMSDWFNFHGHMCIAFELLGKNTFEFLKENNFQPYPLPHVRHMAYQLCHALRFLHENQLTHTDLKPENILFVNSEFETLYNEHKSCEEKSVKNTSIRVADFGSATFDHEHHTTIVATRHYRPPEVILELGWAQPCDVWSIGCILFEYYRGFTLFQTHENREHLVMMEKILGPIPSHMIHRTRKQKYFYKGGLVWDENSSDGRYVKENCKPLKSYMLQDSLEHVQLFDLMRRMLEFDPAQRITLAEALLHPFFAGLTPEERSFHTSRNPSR

[21] = biological target: FLT4 (human) (UniProt P35916)
[22] = biological target: DYRK3 (human) (UniProt O43781)
DYRK3 (human), sequence (O43781 whole entry, looked up): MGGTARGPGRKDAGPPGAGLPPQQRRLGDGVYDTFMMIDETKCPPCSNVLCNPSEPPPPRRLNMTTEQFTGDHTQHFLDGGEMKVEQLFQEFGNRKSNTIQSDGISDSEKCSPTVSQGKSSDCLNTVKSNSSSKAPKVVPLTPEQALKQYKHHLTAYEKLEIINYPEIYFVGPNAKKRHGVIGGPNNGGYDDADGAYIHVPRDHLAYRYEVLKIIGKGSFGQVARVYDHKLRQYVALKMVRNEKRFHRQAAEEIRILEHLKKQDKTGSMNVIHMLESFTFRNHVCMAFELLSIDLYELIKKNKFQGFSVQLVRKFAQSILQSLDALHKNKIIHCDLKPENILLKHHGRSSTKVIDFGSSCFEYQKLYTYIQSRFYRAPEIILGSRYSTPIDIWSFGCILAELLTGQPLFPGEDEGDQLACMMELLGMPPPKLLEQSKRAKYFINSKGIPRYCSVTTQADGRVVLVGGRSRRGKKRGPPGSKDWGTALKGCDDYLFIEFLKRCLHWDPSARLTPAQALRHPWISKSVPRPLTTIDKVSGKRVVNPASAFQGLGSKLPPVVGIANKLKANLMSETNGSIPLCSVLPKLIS

[23] = biological target: MAPK7 (human) (UniProt Q13164)
[24] = biological target: PGK1 (human) (UniProt P00558)
[25] = biological target: SLK (human) (UniProt Q9H2G2)
[26] = biological target: HIPK3 (human) (UniProt Q9H422)
[27] = biological target: IKBKE (human) (UniProt Q14164)
[28] = biological target: DDR1 (human) (UniProt Q08345)
DDR1 (human), sequence (Q08345 whole entry, looked up): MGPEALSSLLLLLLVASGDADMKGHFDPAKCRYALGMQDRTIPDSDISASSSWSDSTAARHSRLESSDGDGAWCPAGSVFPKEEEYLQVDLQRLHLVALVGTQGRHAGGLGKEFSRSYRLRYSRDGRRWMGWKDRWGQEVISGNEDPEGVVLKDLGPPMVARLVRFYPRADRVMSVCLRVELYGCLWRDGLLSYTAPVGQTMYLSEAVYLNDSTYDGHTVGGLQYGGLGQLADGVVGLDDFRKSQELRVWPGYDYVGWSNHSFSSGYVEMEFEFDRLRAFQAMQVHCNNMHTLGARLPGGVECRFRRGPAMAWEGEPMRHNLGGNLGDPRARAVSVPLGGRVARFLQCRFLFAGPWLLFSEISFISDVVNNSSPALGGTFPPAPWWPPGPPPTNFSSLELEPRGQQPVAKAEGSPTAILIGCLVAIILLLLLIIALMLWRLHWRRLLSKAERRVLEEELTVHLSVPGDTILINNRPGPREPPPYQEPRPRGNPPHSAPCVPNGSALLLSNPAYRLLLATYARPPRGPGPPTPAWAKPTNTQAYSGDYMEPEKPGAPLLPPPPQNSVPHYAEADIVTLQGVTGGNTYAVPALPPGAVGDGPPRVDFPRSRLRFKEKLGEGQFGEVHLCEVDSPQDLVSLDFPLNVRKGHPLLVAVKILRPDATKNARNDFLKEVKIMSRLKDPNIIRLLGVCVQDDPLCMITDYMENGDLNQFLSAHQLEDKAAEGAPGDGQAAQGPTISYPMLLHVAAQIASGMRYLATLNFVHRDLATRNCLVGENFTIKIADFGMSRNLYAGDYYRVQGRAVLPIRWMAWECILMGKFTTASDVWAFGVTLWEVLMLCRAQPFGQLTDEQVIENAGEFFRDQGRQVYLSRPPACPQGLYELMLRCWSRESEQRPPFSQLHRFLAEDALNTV

[29] = biological target: HIPK4 (human) (UniProt Q8NE63)
[30] = biological target: FGFR1 (human) (UniProt P11362)
[31] = biological target: STK38L (human) (UniProt Q9Y2H1)
[32] = biological target: EPHB4 (human) (UniProt P54760)
[33] = biological target: PDGFRB (human) (UniProt P09619)
[34] = biological target: FRK (human) (UniProt P42685)

SGK1 (human), sequence (O00141 whole entry, looked up): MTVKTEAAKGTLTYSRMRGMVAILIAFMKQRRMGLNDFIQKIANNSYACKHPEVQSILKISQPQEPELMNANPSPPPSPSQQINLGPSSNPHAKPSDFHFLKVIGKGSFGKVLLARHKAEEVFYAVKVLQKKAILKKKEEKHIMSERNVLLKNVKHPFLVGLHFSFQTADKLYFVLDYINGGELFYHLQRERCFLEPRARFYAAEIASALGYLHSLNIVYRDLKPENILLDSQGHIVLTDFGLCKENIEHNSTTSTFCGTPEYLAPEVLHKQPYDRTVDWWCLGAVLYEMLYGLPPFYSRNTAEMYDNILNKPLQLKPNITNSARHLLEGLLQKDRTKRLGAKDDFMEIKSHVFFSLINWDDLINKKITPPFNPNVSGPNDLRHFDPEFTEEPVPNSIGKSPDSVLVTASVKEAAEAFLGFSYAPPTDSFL

inhibition ([1]; compound 0.02 µM): -0.8%
inhibition ([1]; compound 0.2 µM): 8.1%
inhibition ([2]; compound 0.02 µM): 6.1%
inhibition ([2]; compound 0.2 µM): 38.8%
inhibition ([3]; compound 0.02 µM): -12.2%
inhibition ([3]; compound 0.2 µM): 4.4%
inhibition ([4]; compound 0.02 µM): -0.6%
inhibition ([4]; compound 0.2 µM): 8.5%
inhibition ([5]; compound 0.02 µM): 1.3%
inhibition ([5]; compound 0.2 µM): 14.1%
inhibition ([6]; compound 0.02 µM): -2.7%
inhibition ([6]; compound 0.2 µM): -1%
inhibition ([7]; compound 0.02 µM): -1.8%
inhibition ([7]; compound 0.2 µM): 5%
inhibition ([8]; compound 0.02 µM): -6.3%
inhibition ([8]; compound 0.2 µM): 9.4%
inhibition ([9]; compound 0.02 µM): -0.9%
inhibition ([9]; compound 0.2 µM): 1.1%
inhibition ([10]; compound 0.02 µM): -5.3%
inhibition ([10]; compound 0.2 µM): 10.4%
inhibition ([11]; compound 0.02 µM): -4%
inhibition ([11]; compound 0.2 µM): -7.2%
inhibition ([12]; compound 0.02 µM): -2.3%
inhibition ([12]; compound 0.2 µM): 8.8%
inhibition ([13]; compound 0.02 µM): -2.8%
inhibition ([13]; compound 0.2 µM): -1.4%
inhibition ([14]; compound 0.02 µM): -7.8%
inhibition ([14]; compound 0.2 µM): 6.1%
inhibition ([15]; compound 0.02 µM): -3.8%
inhibition ([15]; compound 0.2 µM): 3.8%
inhibition ([16]; compound 0.02 µM): -6.5%
inhibition ([16]; compound 0.2 µM): 2.8%
inhibition ([17]; compound 0.02 µM): 0.1%
inhibition ([17]; compound 0.2 µM): 10.4%
inhibition ([18]; compound 0.02 µM): -3.2%
inhibition ([18]; compound 0.2 µM): 7.2%
inhibition ([19]; compound 0.02 µM): 2.1%
inhibition ([20]; compound 0.02 µM): -7.5%
inhibition ([20]; compound 0.2 µM): 5.9%
inhibition ([21]; compound 0.02 µM): 61.6%
inhibition ([21]; compound 0.2 µM): 98.5%
inhibition ([22]; compound 0.02 µM): -5.8%
inhibition ([22]; compound 0.2 µM): 2.1%
inhibition ([23]; compound 0.02 µM): -9.1%
inhibition ([23]; compound 0.2 µM): -8.8%
inhibition ([24]; compound 0.02 µM): -6.2%
inhibition ([24]; compound 0.2 µM): 1.9%
inhibition ([25]; compound 0.02 µM): 1%
inhibition ([25]; compound 0.2 µM): 10.6%
inhibition ([26]; compound 0.02 µM): 3.2%
inhibition ([26]; compound 0.2 µM): 28%
inhibition ([27]; compound 0.02 µM): -4.5%
inhibition ([27]; compound 0.2 µM): -4.7%
inhibition ([28]; compound 0.02 µM): 4.2%
inhibition ([28]; compound 0.2 µM): 88.7%
inhibition ([29]; compound 0.02 µM): 84%
inhibition ([29]; compound 0.2 µM): 98.4%
inhibition ([30]; compound 0.02 µM): 5.3%
inhibition ([30]; compound 0.2 µM): 49.9%
inhibition ([31]; compound 0.02 µM): -3.6%
inhibition ([31]; compound 0.2 µM): 4.2%
Structure (SMILES): CNC(=O)c1cc(Oc2ccc(NC(=O)Nc3ccc(Cl)c(C(F)(F)F)c3)cc2)ccn1

inhibition ([1]; compound 0.02 µM): 13.3%
inhibition ([1]; compound 0.2 µM): 11%
inhibition ([2]; compound 0.02 µM): -2.7%
inhibition ([2]; compound 0.2 µM): 4.7%
inhibition ([4]; compound 0.02 µM): -0.7%
inhibition ([4]; compound 0.2 µM): -4.1%
inhibition ([5]; compound 0.02 µM): 1.7%
inhibition ([5]; compound 0.2 µM): 0.5%
inhibition ([6]; compound 0.02 µM): -1.2%
inhibition ([6]; compound 0.2 µM): -0.9%
inhibition ([8]; compound 0.02 µM): 4.8%
inhibition ([8]; compound 0.2 µM): 19.7%
inhibition ([9]; compound 0.02 µM): -3.6%
inhibition ([9]; compound 0.2 µM): 1%
inhibition ([10]; compound 0.02 µM): 7%
inhibition ([10]; compound 0.2 µM): -6.6%
inhibition ([11]; compound 0.02 µM): -17.4%
inhibition ([11]; compound 0.2 µM): -14.6%
inhibition ([12]; compound 0.02 µM): 5.4%
inhibition ([12]; compound 0.2 µM): 12%
inhibition ([13]; compound 0.02 µM): -2.3%
inhibition ([13]; compound 0.2 µM): -2.2%
inhibition ([14]; compound 0.02 µM): 0.6%
inhibition ([14]; compound 0.2 µM): 4.1%
inhibition ([15]; compound 0.02 µM): -7.8%
inhibition ([15]; compound 0.2 µM): 42%
inhibition ([16]; compound 0.02 µM): -0.3%
inhibition ([16]; compound 0.2 µM): 6.8%
inhibition ([17]; compound 0.02 µM): 6.9%
inhibition ([17]; compound 0.2 µM): 0.9%
inhibition ([32]; compound 0.02 µM): -2.8%
inhibition ([32]; compound 0.2 µM): -2.6%
inhibition ([19]; compound 0.02 µM): 6.7%
inhibition ([19]; compound 0.2 µM): 4.3%
inhibition ([20]; compound 0.02 µM): -3.9%
inhibition ([20]; compound 0.2 µM): 9.6%
inhibition ([22]; compound 0.02 µM): -2.2%
inhibition ([22]; compound 0.2 µM): -1.4%
inhibition ([23]; compound 0.02 µM): -7.8%
inhibition ([23]; compound 0.2 µM): -7.6%
inhibition ([24]; compound 0.02 µM): -5.4%
inhibition ([24]; compound 0.2 µM): -2.2%
inhibition ([25]; compound 0.02 µM): 9%
inhibition ([25]; compound 0.2 µM): 12.3%
inhibition ([26]; compound 0.02 µM): 2.3%
inhibition ([26]; compound 0.2 µM): 2.6%
inhibition ([27]; compound 0.02 µM): -3.4%
inhibition ([27]; compound 0.2 µM): -7.1%
inhibition ([28]; compound 0.02 µM): 19.6%
inhibition ([28]; compound 0.2 µM): 80.9%
inhibition ([33]; compound 0.02 µM): 36.7%
inhibition ([33]; compound 0.2 µM): 81.4%
inhibition ([29]; compound 0.02 µM): 6.8%
inhibition ([29]; compound 0.2 µM): 12.3%
inhibition ([34]; compound 0.02 µM): 10.3%
inhibition ([34]; compound 0.2 µM): 47.3%
inhibition ([31]; compound 0.02 µM): -1.5%
inhibition ([31]; compound 0.2 µM): 6.6%
Structure (SMILES): Cc1ccc(Nc2nccc(N(C)c3ccc4c(C)n(C)nc4c3)n2)cc1S(N)(=O)=O
